Data from paper PMC5115179 (Pharmacology Research & Perspectives, 2016).
Read-outs that look alike come from different tables or passages of the source.

Tests used:
[1] = test system: rat; set-up: method as in Nava et al., 2001; details: dose n.s., i.p., ref Nava et al., 2001; cited from earlier work
[2] = Metabolite identification in samples from mouse pharmacokinetic studies (candidate metabolites); assay type: in vivo; details: LC‐MS/MS of NCS‐382‐treated mouse samples
Description: Metabolite identification was conducted on samples obtained from pharmacokinetic studies in mice. Analytical conditions and equipment were similar to those described above with some modifications. Samples (10 μL) were injected onto a Kinetex PFP (50 × 2.1 mm, 1.7 μm particle size) UPLC column maintained at 40°C. […] MS experiments consisted of enhanced MS (EMS), neutral loss (NL), precursor ion scan (Prec), and MRM each followed by MS/MS experiments when necessary. Constant conditions such as a source temperature (450°C), signal threshold (500 cps), and CAD gas (“high”) were used, while additional parameters (e.g., collision energy, collision energy spread, mass range, etc.) were obtained by the software during data‐dependent scans. Studies were performed using sera and brain samples, with time points pooled for individual matrices and a reference control derived by pooling the sera or brain homogenates from three vehicle‐treated animals.
Using the Light Sight software, a comprehensive list of prospective phase I and phase II metabolites were targeted (Table S2). […] A number of structurally feasible metabolites (including oxidation) were initially identified, but could not be confirmed by their mass fragmentation patterns. […] Both peaks were detected in urine samples (Fig. S1B), but not in feces.

[3] = in vivo; assay type: in vivo; details: mouse; for half-life / Kp / AUC / CL/F / Cmax: both sexes, ip; for Kp: C57/B6, brain/serum, read-out: Brain to sera AUC ratio
Description: In pharmacokinetic studies, mice were not randomized to groups but instead assigned to treatment and time points such that there was no gender of weight bias. Studies were initiated in the morning and following treatment mice were euthanized by CO2 asphyxiation and cervical dislocation at predetermined time points (0.25, 0.5, 1, 2, 4, 8, 12, and 24 h) (n = 3–4 animals per time point). Blood (via cardiac puncture), brain, liver, and kidney were rapidly collected, tissues were snap‐frozen in liquid nitrogen, and stored at −80°C prior to further analysis. Sera (20–100 μL) was obtained by low‐speed centrifugation at 2000 × g for 10 min at 6°C. Tissues were suspended in phosphate‐buffered saline (PBS, 1:5, w/v) and homogenized via mechanical homogenization before preparation for LC‐MS/MS analysis.
Samples (3 μL) were injected onto a Kinetex PFP (50 × 2.1 mm, 1.7 μm particle size) UPLC column and eluted with a binary gradient consisting of water with 0.1% formic acid (mobile phase A) and methanol with 0.1% formic acid (mobile phase B). Initially, 5% mobile phase B was held for 0.4 min at a flow rate of 0.3 mL/min, then increased linearly to 85% over 2.6 min. This composition was held constant for 0.5 min then returned to initial conditions within 6 sec and equilibrated for an additional 1.8 min. Eluent was directed to waste for the initial 0.4 min then to an ABI Sciex 6500 Qtrap tandem mass spectrometer. […] Where necessary, samples were diluted in blank matrices for analysis. Methods were developed using the criteria presented in the FDA bioanalytical guidance document (www.fda.gov, 2013).
Pharmacokinetic outcomes were obtained via standard noncompartmental methods using Kinetica (version 5.1, Thermo Fisher Scientific, Waltham, MA). The maximum concentration (C max) was obtained directly from the concentration–time profiles. Area under the concentration–time curve (AUC) from time zero to the last collected time point was determined using the trapezoidal method with linear up/log down interpolation. For sera and urine, data above the limit of detection but below the LLOQ were computed as LLOQ/2 (7 nmol/L, 7.5 μg/mL, respectively) to allow for the recovery of the terminal half‐life as reported previously (Beal 2001). To obtain estimates of variability around the mean of AUC and C max, the method of Bailer–Satterwaithe was employed due to the destructive sampling approach (Nedelman et al. 1995). Furthermore, as a result of the destructive sampling approach outcomes for half‐life, apparent volume of distribution and apparent clearance could not be reported with a term for uncertainty.

[4] = 100 mg/kg i.p., tissue density assumed equal to water
[5] = 300 mg/kg i.p., tissue density assumed equal to water
[6] = 500 mg/kg i.p., tissue density assumed equal to water

SMILES: O=C(O)/C=C1\CCCc2ccccc2C1O (stereo not drawn) [NCS‐382, 6,7,8,9‐tetrahydro‐5‐hydroxy‐5H‐benzo‐cyclohept‐6‐ylideneacetic acid]
- GHB-induced decrease of hippocampal acetylcholine release [1]: GHB-induced ↓ of hippocampal acetylcholine release is mediated by GABAB receptors, based on ineffective blocking by NCS-382.
- Peak Area (%) [2]: 25%
- half-life ([3]; C57/B6, brain, 100 mg/kg i.p., read-out: Brain t 1/2 (converted)): 58 min
- half-life ([3]; C57/B6, brain, 300 mg/kg i.p., read-out: Brain t 1/2 (converted)): 53 min
- half-life ([3]; C57/B6, brain, 500 mg/kg i.p., read-out: Brain t 1/2 (converted)): 45.7 min
- Kp ([3]; 100 mg/kg i.p.): 1.2
- Kp ([3]; 300 mg/kg i.p.): 0.72
- Kp ([3]; 500 mg/kg i.p.): 1.8
- half-life ([3]; C57/B6, kidney, 100 mg/kg i.p., read-out: Kidney t 1/2 (converted)): 18.5 min
- AUC ([3]; C57/B6, serum, 100 mg/kg i.p.): 119 ± 38 µM·h
- CL/F ([3]; C57/B6, serum, 100 mg/kg i.p.): 63.3 mL/min/kg
- Cmax ([3]; C57/B6, serum, 100 mg/kg i.p.): 241 ± 106 µM
- half-life ([3]; C57/B6, serum, 100 mg/kg i.p., read-out: Serum t 1/2 (converted)): 14.6 min
- AUC ([3]; C57/B6, serum, 300 mg/kg i.p.): 436 ± 42 µM·h
- CL/F ([3]; C57/B6, serum, 300 mg/kg i.p.): 52.5 mL/min/kg
- Cmax ([3]; C57/B6, serum, 300 mg/kg i.p.): 374 ± 49 µM
- half-life ([3]; C57/B6, serum, 300 mg/kg i.p., read-out: Serum t 1/2 (converted)): 28.1 min
- AUC ([3]; C57/B6, serum, 500 mg/kg i.p.): 717 ± 83 µM·h
- CL/F ([3]; C57/B6, serum, 500 mg/kg i.p.): 53.2 mL/min/kg
- Cmax ([3]; C57/B6, serum, 500 mg/kg i.p.): 451 ± 49 µM
- half-life ([3]; C57/B6, serum, 500 mg/kg i.p., read-out: Serum t 1/2 (converted)): 41 min
- Serum V/F ([3]; 100 mg/kg i.p.): 2.62 L/kg
- time after administration up to which detectable in sera ([3]; 100 mg/kg i.p.): up to 4 h
- time after administration up to which quantifiable in brain ([3]; 100 mg/kg i.p.): up to 8 h
- time after administration up to which quantifiable in kidney ([3]; 100 mg/kg i.p.): up to 4 h
- time after administration up to which quantifiable in liver ([3]; 100 mg/kg i.p.): up to 2 h
- time after administration up to which quantifiable in sera ([3]; 100 mg/kg i.p.): up to 2 h
- Brain AUC [3, 4]: 139 ± 60 µM·h
- Brain Cmax [3, 4]: 60 ± 9.5 µM
- Kidney AUC [3, 4]: 24.5 ± 5.3 µM·h
- Kidney Cmax [3, 4]: 23.6 ± 3.0 µM
- Liver AUC [3, 4]: 1150 ± 595 µM·h
- Liver Cmax [3, 4]: 1695 ± 2030 µM
- Serum V/F ([3]; 300 mg/kg i.p.): 2.93 L/kg
- Brain AUC [3, 5]: 313 ± 33 µM·h
- Brain Cmax [3, 5]: 141 ± 45 µM
- Serum V/F ([3]; 500 mg/kg i.p.): 4.25 L/kg
- Brain AUC [3, 6]: 1280 ± 175 µM·h
- Brain Cmax [3, 6]: 530 ± 70 µM
